Measurements as given in publication PMC5289826 (PLoS ONE, 2017).

Columns and labels:
human 17β-HSD2 = test system: T1, human 17β-HSD2; experiment: 17β-HSD2 enzyme activity in cell lysates (estradiol to estrone); type: biochemical; conditions: 1 μM, 200 nM estradiol
T1 construct: expressed in transfected cells; host or cells: HEK-293 (transient)
Procedure: (§1) Human embryonic kidney (HEK-293) cells either stably expressing human 11β-HSD1 and H6PDH (HHH7 clone, [38]) or 11β-HSD2 (AT8 clone, [39]), or transiently expressing human 17β-HSD1 or 17β-HSD2, were cultivated in Dulbecco’s modified Eagle medium (DMEM) containing 4.5 g/L glucose, 10% fetal bovine serum, 100 U/mL penicillin, 0.1 mg/mL streptomycin, 1 × MEM nonessential amino acids, and 10 mM HEPES buffer, pH 7.4. Cells were washed with phosphate-buffered saline (PBS), centrifuged for 4 min at 150 × g, and the cell pellets were snap frozen on dry ice and stored at −80°C until further use.
(§2) Cell lysates were resuspended in TS2 buffer (100 mM NaCl, 1 mM EGTA, 1 mM EDTA, 1 mM MgCl2, 250 mM sucrose, 20 mM Tris-HCl, pH 7.4), followed by sonication at 4°C using a Hielscher UP50H ultrasonic processor (0.3 cycle, 20 amplitude %, 20 impulses; Hielscher Ultrasonics GmbH, Teltow Germany). Cell lysates, reaction mixture, and either vehicle (DMSO) or inhibitor were incubated for 10 min at 37°C in a final volume of 22.2 μL. The solvent concentration was 0.1%. […] 11β-HSD2 activity was measured in the presence of 50 nM cortisol and 500 μM NAD^+. An amount of 50 nCi of radiolabeled tracer substrate was included in the experiments. […] The bands of the corresponding steroids were excised, followed by scintillation counting and calculation of the amount of substrate conversion. Data were obtained from at least three independent measurements. Glycyrrhetinic acid (CTRL 1) was used as positive control for 11β-HSD1 and 11β-HSD2 inhibition, apigenin (CTRL 2) for 17β-HSD1, and compound 22 from Vuorinen et al. [40](CTRL 3) for 17β-HSD2 inhibition.

[1] = test system: T2, recombinant human 11β-HSD2; experiment: 11β-HSD2 enzyme activity in cell lysates (cortisol to cortisone); type: biochemical; conditions: 1 μM compound; lysates of HEK-293 cells; 50 nM cortisol
T2 construct: expressed in transfected cells
Procedure: as §1, §2

[2] = target: T3, recombinant human 11β-HSD1 (Homo sapiens, UniProt P28845); experiment: 11β-HSD1 enzyme activity in cell lysates (cortisone to cortisol, radiolabeled tracer, TLC); type: biochemical; conditions: for 11β-HSD1 Residual activity, % of control at 100 nM: 100 nM compound; for 11β-HSD1 Residual activity, % of control at 100 nM / 11β-HSD1 Residual activity, % of control at 1 μM: lysates of HEK-293 cells, 200 nM cortisone, mean of three experiments; for 11β-HSD1 Residual activity, % of control at 1 μM: 1 μM compound
T3 construct: expressed in transfected cells
Procedure: as §1, §2

endogenous 11β-HSD1 = target: T4, endogenous 11β-HSD1 (Homo sapiens, UniProt P28845); experiment: 11β-HSD1-dependent cortisol formation in intact primary human keratinocytes; type: cell-based; conditions: for inhibition of cortisol formation (in words): 1 μM compound, primary human keratinocytes, 1 μM cortisone, 24 h; for IC50: read-out: estimated IC50 of cortisol formation
T4 construct: intact primary human keratinocytes expressing endogenous 11β-HSD1; host or cells: primary human epidermal keratinocytes
Procedure: Human epidermal keratinocytes obtained from CELLnTEC advanced Cell Systems (Berne, Switzerland) were maintained in CnT-Prime medium (http://cellntec.com/products/cnt-pr/#datasheet) at 37°C. Cells were subcultivated before reaching confluence. After reaching 90% of confluence, the keratinocytes were washed twice with PBS prior to change to cortisol-free CnT-Prime medium (custom-made by CELLnTEC). […] Compound CAS 1009373-58-3 (CTRL 4, Merck Millipore, Darmstadt, Germany) was used as positive control. After 24 h cell culture supernatants were collected and the amount of cortisol produced was measured on a Mulstiskan Ascent plate reader (MTX Lab Systems, Bradenton, FL) using the Cortisol Parameter Assay Kit (R&D Systems, Minneapolis, MN) following the instructions by the manufacturer. Cell viability was assessed using PrestoBlue® Cell Viability Reagent (Invitrogen, Carlsbad, CA) according to the manufacturer’s instructions.

human 17β-HSD1 = test system: T5, human 17β-HSD1; experiment: 17β-HSD1 enzyme activity in cell lysates (estrone to estradiol); type: biochemical; conditions: 1 μM, 200 nM estrone
T5 construct: expressed in transfected cells; host or cells: HEK-293 (transient)
Procedure: as §1, §2

human 11β-HSD1 = test system: T6, human 11β-HSD1; experiment: 11β-HSD1 activity assay in intact HEK-293 cells co-expressing 11β-HSD1 and H6PDH; type: cell-based; conditions: 100 nM and 1 μM compound; intact HHH7 cells; 200 nM cortisone; 30 min
T6 construct: expressed in transfected cells
Procedure: HEK-293 cells co-expressing 11β-HSD1 and H6PDH were seeded in poly-L-lysine coated 96 well-plates (30’000 cells/well) and cultivated in DMEM. At 24 h post-seeding, the cells were washed with charcoal-treated serum-free DMEM (cDMEM) and incubated for 3 h in 100 μL cDMEM. Then, the medium was aspirated and replaced by 30 μL cDMEM. […] The reactions were terminated after 30 min of incubation, followed by analysis of substrate conversion as described above. Data were obtained from at least three independent measurements.

human skin biopsies [3] = experiment: Dermal total collagen content in ex vivo human skin biopsies (Picrosirius Red); conditions: 10 μM or 100 μM inhibitor topically, 6 days; 100 nM cortisone for 5 days
Procedure: (§3) Ex vivo skin experiments were performed as contract research by Cutech Biotechnology following the Helsinki declaration and who obtained permission as well as informed consent from the patient (Padova, Italy). Human skin from abdominal plastic surgery of a donor was used. Skin samples were cut in pieces of approximately 8 × 3 mm (diameter × thickness) and cultured in an air-liquid interface in a perforated ring of stainless steel in contact with culture medium (modified Williams’ E medium, Sigma Aldrich) up to day 6. The culture medium was renewed on day 0 and day 3. The test compounds were applied topically and renewed daily. The application was performed as follows: skin biopsies were gently cleaned with a cotton pad and 4 μL of 10 μM or 100 μM test compound were applied on top of each piece and covered with a 6 mm (diameter) delivery membrane (CoTran 9728 Controlled Caliper Ethylene Vinyl Acetate Membrane, 3M, St. Paul, MN, USA).
Skin viability was assessed in two skin biopsies after 6 days of treatment using methylthiazolyldiphenyl‐tetrazolium bromide (MTT, Sigma Aldrich) staining. Total dermal collagen in skin sections was semi-quantitatively evaluated by Picrosirius Red histochemical staining (using Picric Acid, Fast Green FCF and Direct Red from Sigma Aldrich) that dyes collagen fibers in purple-red. […] The evaluation was performed by estimating both color intensity and distribution using IMAGE J (NIH) analysis software, allowing to obtain a semi-quantitative evaluation of dermal collagen (collagen score). Two slides of each skin sample were processed by image acquisition and related analysis (i.e. 12 images for each treatment).

human skin biopsies [4] = experiment: Dermal collagen III content in UV exposed ex vivo human skin biopsies (anti-collagen III antibody)
Procedure: as §3
Skin biopsies were subjected to UV irradiation using a BIO-SUN system (Vilber Lourmat, Eberhardzell, Germany). The system had the following specifications: Lamp wave length: UVB 312 nm (range 280–320 nm) and UVA 365 nm (range 355–375 nm), range of measure (irradiance): accuracy and linearity ± 0.2%, range of programmed energy: 0.1 to 99.99 J/cm^2, intensity: UVA (365 nm) 5 mW/cm^2, UVB (312 nm) 3 mW/cm^2, UVA + UVB: 5.6 + 3.2 mW/cm^2, respectively. The selected UV irradiation intensities were 40% and 80% of the Biological Effective Dose (BED) of 7.5 J/cm^2 UV daylight as described by Del Bino et al.. UV 40% BED = 3.0 J/cm^2 (= 0.1 J/cm^2 UVB + 2.9 J/cm^2 UVA); UV 80% = 6.0 J/cm^2 (= 0.2 J/cm^2 UVB + 5.8 J/cm^2 UVA).
Furthermore, in a preliminary set of experiments, skin biopsies were UV irradiated at 3.0 J/cm^2 and 6.0 J/cm^2 and treated topically with 4 μL of 10 μM or 100 μM of the respective inhibitor, followed by determination of collagen III content using a mouse monoclonal anti-collagen III antibody (Sigma Aldrich).

[5] = 100 μM, 6.0 J/cm^2 UV irradiation

T3 sequence (P28845 whole entry): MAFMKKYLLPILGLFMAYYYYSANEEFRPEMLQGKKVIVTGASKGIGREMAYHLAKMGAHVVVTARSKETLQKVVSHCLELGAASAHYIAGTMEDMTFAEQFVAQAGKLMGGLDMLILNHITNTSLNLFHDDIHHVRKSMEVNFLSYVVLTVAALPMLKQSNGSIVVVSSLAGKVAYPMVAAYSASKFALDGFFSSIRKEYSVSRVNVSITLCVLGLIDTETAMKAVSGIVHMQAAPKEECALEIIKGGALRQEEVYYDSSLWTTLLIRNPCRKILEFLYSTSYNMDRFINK
T4 sequence (P28845 whole entry): as above

IC50 [2] [nM] | 11β-HSD1 Residual activity, % of control at 100 nM [2] | 11β-HSD1 Residual activity, % of control at 1 μM [2] | inhibition of cortisol formation (in words) (endogenous 11β-HSD1) | IC50 (endogenous 11β-HSD1) [nM] | melting point [°C] | SMILES | inhibition of 17β-HSD2 (in words) (human 17β-HSD2) | 11β-HSD2 Residual activity, % of control at 1 μM [1] | inhibition of 17β-HSD1 (in words) (human 17β-HSD1) | inhibition of 11β-HSD1 in intact cells (in words) (human 11β-HSD1) | effect on cortisone-induced collagen decrease (in words) (human skin biopsies [3]) | collagen III vs UV treated vehicle control (in words) (human skin biopsies [4]; 100 μM, 3.0 J/cm^2 UV irradiation, p<0.01) | collagen III vs UV treated vehicle control (in words) (human skin biopsies [4]; [5]) | effect on UV-mediated decrease in collagen III levels (in words) (human skin biopsies [4]; topical 10 μM or 100 μM, 3.0 and 6.0 J/cm^2 UV, preliminary) | collagen III vs UV treated vehicle control (in words) (human skin biopsies [4]; 10 μM, UV irradiated biopsies)
40.4 | 38 % of control | 5 % of control | almost completely inhibited | ≤ 100 |  | CC1CCN(C(=O)c2cccc(-c3ccc(O)cc3)c2)CC1 [7b, (4’-Hydroxy-[1,1’-biphenyl]-3-yl)(4-methylpiperidin-1-yl)methanone] | selective | > 90 % of control | selective | almost completely inhibited |  |  |  |  | 
34.5 | 19 % of control | 1 % of control | almost completely inhibited | ≤ 100 | 106 to 108 | Cc1ccc(-c2cccc(C(=O)N3CCCCCC3)c2)cc1F [3e, Azepan-1-yl(3’-fluoro-4’-methyl-[1,1’-biphenyl]-3-yl)methanone] | selective | > 90 % of control | selective | almost completely inhibited | prevented the cortisone-induced collagen decrease | significantly higher collagen III | significantly higher collagen III | prevented the decrease in collagen III levels | 
42.2 | 36 % of control | 5 % of control | almost completely inhibited | ≤ 100 |  | Cc1ccc(-c2cccc(C(=O)N3CCC(C)CC3)c2)cn1 [2b, (4-Methylpiperidin-1-yl)(3-(6-methylpyridin-3-yl)phenyl)methanone] | selective | > 90 % of control | selective | almost completely inhibited | prevented the cortisone-induced collagen decrease |  | significantly higher collagen III levels |  | did not result in significant changes
23.4 | 21 % of control |  | almost completely inhibited | ≤ 100 |  | O=C(c1cccc(-c2ccccc2)c1)N1CCCCCC1 [12e, [1,1’-Biphenyl]-3-yl(azepan-1-yl)methanone] | selective | > 90 % of control | selective | almost completely inhibited | prevented the cortisone-induced collagen decrease |  | significantly higher collagen III levels |  | did not result in significant changes
